Assay results published in patent US7332476B2, “Pyridyl substituted ketolide antibiotics” (Novartis AG, priority 2003, dated 2008).
≈ marks a conversion by molar mass, not a printed value.

How the values were obtained:
Assay in all cases: MIC, broth microdilution (NCCLS)
[1] = system: Enterococcus faecalis Enfa_29212; assay type: cell-based; details: Table 7, Strain ID D (Table 6): E. faecalis Enfa_29212; in µg/mL (unit assumed)
Method: (§1) Strains. The bacterial isolates listed in Table 4 were cultivated from −70° C. frozen stocks by two consecutive overnight passages (P1, P2) at 35° C. on 5% blood agar (Remel, Lenexa, Kans.). Chocolate agar (Remel) is used for Haemophilus influenzae. H. influenzae and Streptococcus pneumoniae are incubated in 5-10% CO2
(§2) Drug Stock Preparation. To determine the amount of solvent to be used to give the desired final concentration, the formula “weight obtained in mg/final concentration in mg/ml” will be used. It will give the amount of solvent in ml needed to be added to give the desired concentration. For example, if 2.5 mg/ml is the desired concentration and the weight of compound is 13.7 mg, then the amount of solvent to be added is […]. Methanol is used as the solvent to dissolve the test compounds. Further dilution of stock is done in sterile, deionized water. Drug stocks are kept frozen at −70° C., protected from light.
(§3) Susceptibility Testing. MICs are determined by the broth microdilution method in accordance with the NCCLS guidelines. In brief, organism suspensions are adjusted to a 0.5 McFarland standard to yield a final inoculum between 3×10^5 and 7×10^5 CFU/ml. Drug dilutions and inocula are made in sterile, cation adjusted Mueller-Hinton Broth (CAMHB) (Remel) for all but S. pneumoniae [CAMHB with 2-5% lysed horse blood (Remel)] and H. influenzae [Haemophilus Test Medium (Remel)]. An inoculum volume of 100 μl is added to wells containing 100 μl of broth with 2-fold serial dilutions of drug. All inoculated microdilution trays are incubated in ambient air at 35° C. for 18-24 hours, except for S. pneumoniae, and H. influenzae (both at 5-10% CO2).
(§4) Following appropriate incubation, the MIC is determined and the MIC is defined as the lowest concentration of the drug that prevented visible growth.
as §1, with “8” for “4”
(§5) Following appropriate incubation, the MIC is determined and the MIC is defined as the lowest concentration of the drug that prevented visible growth. […] Antibacterial activity of representative compounds of the invention were compared against telitromycin.

[2] = system: Haemophilus influenzae Hain_49247; assay type: cell-based; details: Table 7, Strain ID M (Table 6): H. influenzae Hain_49247; unit assumed
Method: as §1, §2, §3, §4
as §1, with “8” for “4”
as §5

[3] = system: Staphylococcus aureus Stau_29213; assay type: cell-based; details: Table 7, Strain ID A (Table 6): S. aureus Stau_29213; in µg/mL (unit assumed)
Method: as §1, §2, §3, §4
as §1, with “8” for “4”
as §5

[4] = system: Staphylococcus epidermidis Step_14990; assay type: cell-based; details: Table 7, Strain ID B (Table 6): S. epidermidis Step_14990; in µg/mL (unit assumed)
Method: as §1, §2, §3, §4
as §1, with “8” for “4”
as §5

[5] = system: Staphylococcus epidermidis Step_f50654; assay type: cell-based; details: Table 7, Strain ID C (Table 6): S. epidermidis Step_f50654; in µg/mL (unit assumed)
Method: as §1, §2, §3, §4
as §1, with “8” for “4”
as §5

[6] = system: Streptococcus pneumoniae Stpn_Erm S 4297; assay type: cell-based; details: Table 7, Strain ID J (Table 6): S. pneumoniae Stpn_Erm S 4297
Method: as §1, §2, §3, §4
as §1, with “8” for “4”
as §5

[7] = system: Streptococcus pneumoniae Stpn_Mef S 3427; assay type: cell-based; details: Table 7, Strain ID L (Table 6): S. pneumoniae Stpn_Mef S 3427
Method: as §1, §2, §3, §4
as §1, with “8” for “4”
as §5

[8] = system: Streptococcus pyogenes Stpy_8668; assay type: cell-based; details: Table 7, Strain ID E (Table 6): S. pyogenes Stpy_8668
Method: as §1, §2, §3, §4
as §1, with “8” for “4”
as §5

[9] = system: Streptococcus pneumoniae Stpn_49619; assay type: cell-based; details: Table 7, Strain ID F (Table 6): S. pneumoniae Stpn_49619
Method: as §1, §2, §3, §4
as §1, with “8” for “4”
as §5

[10] = system: Streptococcus pneumoniae Stpn_297-749; assay type: cell-based; details: Table 7, Strain ID G (Table 6): S. pneumoniae Stpn_297-749
Method: as §1, §2, §3, §4
as §1, with “8” for “4”
as §5

[11] = system: Streptococcus pneumoniae Stpn_280-962; assay type: cell-based; details: Table 7, Strain ID H (Table 6): S. pneumoniae Stpn_280-962
Method: as §1, §2, §3, §4
as §1, with “8” for “4”
as §5

[12] = system: S. pneumoniae Stpn_Erm 6849; assay type: cell-based, Streptococcus pneumoniae; details: Table 7, Strain ID I (Table 6): S. pneumoniae Stpn_Erm 6849
Method: as §1, §2, §3, §4

[13] = system: Streptococcus pneumoniae Stpn_Mef 5654; assay type: cell-based; details: Table 7, Strain ID K (Table 6): S. pneumoniae Stpn_Mef 5654; in µg/mL (unit assumed)
Method: as §1, §2, §3, §4
as §1, with “8” for “4”
as §5

SMILES | MIC [1] | MIC [2] [µg/mL] | MIC [3] | MIC [4] | MIC [5] | MIC [6] | MIC ([7]; in µg/mL (unit assumed)) | MIC [8] | MIC [9] | MIC [10] | MIC [11] | MIC ([12]; unit assumed) [µg/mL] | MIC [13] | MIC [12] | MIC ([6]; unit assumed) [µg/mL] | MIC [7]
CC[C@H]1OC(=O)[C@@](C)(F)C(=O)[C@H](C)[C@@H](OC2O[C@H](C)C[C@H](N(C)C)[C@H]2O)[C@@](C)(OC)C[C@@H](C)C(=O)[C@H](C)[C@H]2N(CCCC(C)(C)n3cnc4ncccc43)C(=O)O[C@]12CC (stereo partly drawn) [Example 39, (3aS,4R,7S,9R,10R,11S,13R,15R,15aR)-3a,4-diethyl-7-fluoro-1-[4-(1H-imidazo[4,5-b]pyridin-1-yl)-4-methylpentyl]-11-methoxy-7,9,11,13,15-pentamethyl-2,6,8,14-tetraoxotetradecahydro-2H-oxacyclotetradecino[4,3-d][1,3]oxazol-10-yl-3,4,6-trideoxy-3-(dimethylamino)-D-xylo-hexopyranoside] | 0.1 | 3.13 (≈ 3.7 µM) | 0.2 | 0.1 | 0.4 | =0.05 | 0.2 | =0.05 | =0.05 | =0.05 | =0.05 | 0.1 (≈ 0.118 µM) | 0.78 | – | – | –
CC[C@H]1OC(=O)[C@H](C)C(=O)[C@H](C)[C@@H](OC2O[C@H](C)C[C@H](N(C)C)[C@H]2O)[C@@](C)(OC)C[C@@H](C)C(=O)[C@H](C)[C@H]2N(CCCCn3cnc(-c4ccc(F)nc4)c3)C(=O)O[C@]12CC (stereo partly drawn) [Example 33, (3aS,4R,7R,9R,10R,11S,13R,15R,15aR)-3a,4-DIETHYL-1-14-[4-(6-FLUOROPYRIDIN-3-YL)-1H-IMIDAZOL-1-YL]BUTYL}-11-METHOXY-7,9,11,13,15-PENTAMETHYL-2,6,8,14-TETRAOXOTETRADECAHYDRO-1H-OXACYCLOTETRADECINO[4,3-D][1,3]OXAZOL-10-YL-3,4,6-TRIDEOXY-3-(DIMETHYLAMINO)-D-XYLO-HEXOPYRANOSIDE] | – | – | – | – | – | – | – | =0.05 | – | =0.05 | =0.05 | – | – | =0.05 | – | –
CC[C@H]1OC(=O)[C@H](C)C(=O)[C@H](C)[C@@H](OC2O[C@H](C)C[C@H](N(C)C)[C@H]2O)[C@@](C)(OC)C[C@@H](C)C(=O)[C@H](C)[C@H]2N(CCCC(C)(C)n3cnc(-c4cccnc4)c3)C(=O)O[C@]12CC (stereo partly drawn) [Example 31, (3aS,4R,7R,9R,10R,11S,13R,15R,15aR)-3a,4-diethyl-11-methoxy-7,9,11,13,15-pentamethyl-1-[4-methyl-4-(4-pyridin-3-yl-1H-imidazol-1-yl)pentyl]-2,6,8,14-tetraoxotetradecahydro-2H-oxacyclotetradecino[4,3-d][1,3]oxazol-10-yl-3,4,6-trideoxy-3-(dimethylamino)-D-xylo-hexopyranoside] | 0.2 | 6.25 (≈ 7.32 µM) | 0.2 | 0.4 | 0.4 | – | 0.2 | =0.05 | =0.05 | =0.05 | =0.05 | 0.4 (≈ 0.468 µM) | 0.78 | – | 0.2 (≈ 0.234 µM) | –
CC[C@H]1OC(=O)[C@@](C)(F)C(=O)[C@H](C)[C@@H](OC2O[C@H](C)C[C@H](N(C)C)[C@H]2O)[C@@](C)(OC)C[C@@H](C)C(=O)[C@H](C)[C@H]2N(CCCC(C)(C)n3cnc4cccnc43)C(=O)O[C@]12CC (stereo partly drawn) [Example 40, (3aS,4R,7S,9R,10R,11S,13R,15R,15aR)-3a,4-diethyl-7-fluoro-1-[4-(3H-imidazo[4,5-b]pyridin-3-yl)-4-methylpentyl]-11-methoxy-7,9,11,13,15-pentamethyl-2,6,8,14-tetraoxotetradecahydro-2H-oxacyclotetradecino[4,3-d][1,3]oxazol-10-yl-3,4,6-trideoxy-3-(dimethylamino)-D-xylo-hexopyranoside] | 0.1 | 6.25 (≈ 7.39 µM) | 0.2 | 0.2 | 0.2 | =0.05 | 0.2 | =0.05 | =0.05 | =0.05 | =0.05 | 0.2 (≈ 0.236 µM) | 0.78 | – | – | –
CC[C@H]1OC(=O)[C@H](C)C(=O)[C@H](C)[C@@H](OC2O[C@H](C)C[C@H](N(C)C)[C@H]2O)[C@@](C)(OC)C[C@@H](C)C(=O)[C@H](C)[C@H]2N(CCCCc3ncc(-c4cccc(N)c4)s3)C(=O)O[C@]12CC (stereo partly drawn) [Example 34, (3aS,4R,7R,9R,10R,11S,13R,15R,15aR)-1-{4-[5-(3-AMINOPHENYL)-1,3-THIAZOL-2-YL]BUTYL}-3a,4-DIETHYL-11-METHOXY-7,9,11,13,15-PENTAMETHYL-2,6,8,14-TETRAOXOTETRADECAHYDRO-1H-OXACYCLOTETRADECINO[4,3-D][1,3]OXAZOL-10-YL 3,4,6-TRIDEOXY-3-(DIMETHYLAMINO)-D-XYLO-HEXOPYRANOSIDE] | – | – | – | – | – | – | – | =0.05 | – | =0.05 | =0.05 | – | – | =0.05 | – | –
CC[C@H]1OC(=O)[C@@](C)(F)C(=O)[C@H](C)[C@@H](OC2O[C@H](C)C[C@H](N(C)C)[C@H]2O)[C@@](C)(OC)C[C@@H](C)C(=O)[C@H](C)[C@H]2N(CCCCc3ccc4ccccc4n3)C(=O)O[C@]12CC (stereo partly drawn) [65 (1), (3aS,4R,7S,9R,10R,11S,13R,15R,15aR)-3a,4-DIETHYL-7-FLUORO-11-METHOXY-7,9,11,13,15-PENTAMETHYL-2,6,8,14-TETRAOXO-1-(4-QUINOLIN-2-YLBUTYL)TETRADECAHYDRO-2H-OXACYCLOTETRADECINO[4,3-D][1,3]OXAZOL-10-YL-3,4,6-TRIDEOXY-3-(DIMETHYLAMINO)-D-XYLO-HEXOPYRANOSIDE] | 0.1 | 3.13 (≈ 3.78 µM) | 0.2 | 0.2 | 0.2 | =0.05 | – | =0.05 | – | – | – | – | 0.2 | =0.05 | – | =0.05
CC[C@H]1OC(=O)[C@H](C)C(=O)[C@H](C)[C@@H](OC2O[C@H](C)C[C@H](N(C)C)[C@H]2O)[C@@](C)(OC)C[C@@H](C)C(=O)[C@H](C)[C@H]2N(CCCCn3cc(-c4cccnc4)nc3C)C(=O)O[C@]12CC (stereo partly drawn) [Example 20, (3aS,4R,7R,9R,10R,11S,13R,15R,15aR)-3a,4-diethyl-11-methoxy-7,9,11,13,15-pentamethyl-1-[4-(2-methyl-4-pyridin-3-yl-1H-imidazol-1-yl)butyl]-2,6,8,14-tetraoxotetradecahydro-2H-oxacyclotetradecino[4,3-d][1,3]oxazol-10-yl-3,4,6-trideoxy-3-(dimethylamino)-D-xylo-hexopyranoside] | – | – | – | – | – | =0.05 | – | =0.05 | =0.05 | =0.05 | =0.05 | – | – | =0.5 | – | =0.05
